This note sets out measurements from US20250145665A1, “MACROCYCLIC PEPTIDES USEFUL AS MODULATORS OF TNF ALPHA” (Bristol-Myers Squibb Company, priority 2023, published 2025).

Starred links: 1 amine or outer side, 2 acyl side, 3 side chain; linkers in the order of their positions; H or OH if unused. Positions of bridges follow the written chain, without caps; N, C: chain ends. Non-standard residues stand in square brackets, D forms with d. Residues, ends and D or L forms follow the SMILES beside them. ξ: configuration not given here. *: point of attachment. Bip(4'-NH) = O=C([C@H](Cc1ccc(-c2ccc(N[*:3])cc2)cc1)N[*:1])[*:2]; Indazole3carbonyl(1-CH2COOH) = O=C(O)Cn1nc(C(=O)*)c2ccccc21; Bip(4'-COOH) = N[C@@H](Cc1ccc(-c2ccc(C(=O)O)cc2)cc1)C(=O)O; Bip(4'-NHAc) = CC(=O)Nc1ccc(-c2ccc(C[C@H](N)C(=O)O)cc2)cc1; Indole3carbonyl(1-CH2COOH) = O=C(O)Cn1cc(C(=O)*)c2ccccc21; X1 = N=C(NCCC[C@@H](N[*:1])C(=O)[*:2])NCCc1ccc2ccccc2c1; X58 = N=C(NCCC[C@@H](N[*:1])C(=O)[*:2])NCCc1cccc(N)c1; dArg(ω-Bn) = N=C(NCCC[C@@H](N)C(=O)O)NCc1ccccc1; Ala(morpholin-4-yl) = N[C@@H](CN1CCOCC1)C(=O)O; Benzoyl(3-OCH2COOH) = O=C(O)COc1cccc(C(=O)*)c1; Bip = N[C@@H](Cc1ccc(-c2ccccc2)cc1)C(=O)O; Tiq1c(1S) = O=C(O)[C@H]1NCCc2ccccc21; Hyp = O=C(O)[C@@H]1C[C@@H](O)CN1; Cha = N[C@@H](CC1CCCCC1)C(=O)O; Tle = CC(C)(C)[C@H](N)C(=O)O; ξP = O=C(O)C1CCCN1; Sar = CNCC(=O)O A value given as a limit tells only on which side of the number the result lay.

The target of one assay is TNFα (Homo sapiens, UniProt P01375). Briefly: TNF-Induced HEK-Blue Assay. The class given is cell-based.
Sequence of TNFα (P01375 77-233 limits assumed): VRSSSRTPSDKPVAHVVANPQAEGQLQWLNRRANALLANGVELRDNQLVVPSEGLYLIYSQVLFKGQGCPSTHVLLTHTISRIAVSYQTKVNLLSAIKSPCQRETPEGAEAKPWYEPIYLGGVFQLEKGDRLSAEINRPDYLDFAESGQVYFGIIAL
Conditions: not given
In the case of `CC(C)C[C@@H]1NC(=O)[C@H](CCCNC(=N)N)NC(=O)[C@H](C(C)C)NC(=O)C2CCCN2C(=O)[C@H](C(C)C)NC(=O)[C@@H](CCCNC(=N)NCCc2cccc(N)c2)NC(=O)[C@H](CC(=O)O)NC(=O)[C@@H]2CCCN2C(=O)CN(C)C(=O)[C@H](Cc2ccc(-c3ccc(NC(=O)c4nn(CC(=O)O)c5ccccc45)cc3)cc2)NC(=O)[C@H](Cc2ccc(-c3ccc(C(=O)O)cc3)cc2)NC(=O)[C@H](CN2CCOCC2)NC(=O)CSC[C@@H](C(=O)NCC(N)=O)NC1=O` (stereo partly shown) [Example 406] ({CH2CO}-[Ala(morpholin-4-yl)][Bip(4'-COOH)][Bip(4'-NH)](Indazole3carbonyl(1-CH2COOH))[Sar]PD[X58]V[ξP]VRLCG-NH2; thioether N-13), the IC50 – broadly, the concentration needed to halve the response being measured – is 50 to 200 nM.

On to `CC[C@H](C)[C@@H]1NC(=O)[C@@H](CCCNC(=N)N)NC(=O)[C@H](CC(=O)O)NC(=O)[C@H](Cc2cnc[nH]2)NC(=O)CN(C)C(=O)[C@H](Cc2ccc(-c3ccc(NC(=O)c4cccc(OCC(=O)O)c4)cc3)cc2)NC(=O)[C@H](Cc2ccc(-c3ccc(C(=O)O)cc3)cc2)NC(=O)[C@H](CC2CCCCC2)NC(=O)CSC[C@@H](C(=O)NCC(N)=O)NC(=O)[C@H](CC(C)C)NC(=O)[C@H](Cc2cnc[nH]2)NC(=O)[C@H](C(C)C)NC(=O)[C@@H]2c3ccccc3CCN2C1=O` [Example 375] ({CH2CO}-[Cha][Bip(4'-COOH)][Bip(4'-NH)](Benzoyl(3-OCH2COOH))[Sar]HD[dR]I[Tiq1c(1S)]VHLCG-NH2; thioether N-13), for which the IC50 is below 50 nM. The same measure, in the same setting: with `CC(C)C[C@@H]1NC(=O)[C@H](Cc2ccc(O)cc2)NC(=O)[C@H](C(C)C)NC(=O)[C@@H]2CCCN2C(=O)[C@H](C(C)C)NC(=O)[C@@H](CCCNC(=N)NCc2ccccc2)NC(=O)[C@H](CC(=O)O)NC(=O)[C@@H]2CCCN2C(=O)CN(C)C(=O)[C@H](Cc2ccc(-c3ccc(NC(=O)c4cn(CC(=O)O)c5ccccc45)cc3)cc2)NC(=O)[C@H](Cc2ccc(-c3ccc(C(=O)O)cc3)cc2)NC(=O)[C@H](CC2CCCCC2)NC(=O)CSC[C@@H](C(=O)NCC(N)=O)NC1=O` [Example 580] ({CH2CO}-[Cha][Bip(4'-COOH)][Bip(4'-NH)](Indole3carbonyl(1-CH2COOH))[Sar]PD[dArg(ω-Bn)]VPVYLCG-NH2; thioether N-13) the figure was below 50 nM; with `CC(C)C[C@@H]1NC(=O)[C@H](CCCNC(=N)N)NC(=O)[C@H](C(C)C)NC(=O)[C@@H]2CCCN2C(=O)[C@H](C(C)C)NC(=O)[C@@H](CCCNC(=N)NCCc2ccc3ccccc3c2)NC(=O)[C@H](CC(=O)O)NC(=O)[C@@H]2CCCN2C(=O)CN(C)C(=O)[C@H](Cc2ccc(-c3ccc(NC(=O)c4nn(CC(=O)O)c5ccccc45)cc3)cc2)NC(=O)[C@H](Cc2ccc(-c3ccccc3)cc2)NC(=O)[C@H](CN2CCOCC2)NC(=O)CSC[C@@H](C(=O)NCC(N)=O)NC1=O` [Example 433] ({CH2CO}-[Ala(morpholin-4-yl)][Bip][Bip(4'-NH)](Indazole3carbonyl(1-CH2COOH))[Sar]PD[X1]VPVRLCG-NH2; thioether N-13), 50 to 200 nM.

Staying with this assay, now noted: HEK-Blue-CD40L cells, NF-kB-driven secreted alkaline phosphatase reporter; TNFα 0.5 ng/ml; 18 h; read-out: TNF induced HEK-Blue assay IC50 value.
Take `CC(C)C[C@@H]1NC(=O)[C@H](Cc2ccc(O)cc2)NC(=O)[C@H](C(C)C)NC(=O)[C@@H]2C[C@@H](O)CN2C(=O)[C@H](C(C)C)NC(=O)[C@H](CCCNC(=N)N)NC(=O)[C@H](CC(=O)O)NC(=O)[C@H](Cc2ccc(O)cc2)NC(=O)CN(C)C(=O)[C@H](Cc2ccc(-c3ccccc3)cc2)NC(=O)[C@H](Cc2ccc(-c3ccccc3)cc2)NC(=O)[C@H](CN2CCOCC2)NC(=O)CSC[C@@H](C(=O)NCC(N)=O)NC1=O` [Example 73] ({CH2CO}-[Ala(morpholin-4-yl)][Bip][Bip][Sar]YDRV[Hyp]VYLCG-NH2; thioether N-13): the IC50 is 200 to 2000 nM. Still for that read-out and setting: next, `CC(=O)Nc1ccc(-c2ccc(C[C@@H]3NC(=O)[C@H](Cc4ccc(-c5ccc(C(=O)O)cc5)cc4)NC(=O)[C@H](C(C)(C)C)NC(=O)CSC[C@@H](C(=O)NCC(N)=O)NC(=O)[C@H](CC(C)C)NC(=O)[C@H](Cc4cnc[nH]4)NC(=O)[C@H](C(C)C)NC(=O)[C@@H]4CCCN4C(=O)[C@H](C(C)C)NC(=O)[C@@H](CCCNC(=N)N)NC(=O)[C@H](CC(=O)O)NC(=O)[C@H](Cc4ccccc4)NC(=O)CN(C)C3=O)cc2)cc1` [Example 261] ({CH2CO}-[Tle][Bip(4'-COOH)][Bip(4'-NHAc)][Sar]FD[dR]VPVHLCG-NH2; thioether N-13): below 50 nM; `CC(C)C[C@@H]1NC(=O)[C@H](CCCNC(=N)N)NC(=O)[C@H](C(C)C)NC(=O)[C@@H]2CCCN2C(=O)[C@H](C(C)C)NC(=O)[C@H](CCCNC(=N)N)NC(=O)[C@H](CC(=O)O)NC(=O)[C@@H]2CCCN2C(=O)CN(C)C(=O)[C@H](Cc2ccc(-c3ccccc3)cc2)NC(=O)[C@H](Cc2ccc(-c3ccc(C(=O)O)cc3)cc2)NC(=O)[C@H](CN2CCOCC2)NC(=O)CSC[C@@H](C(=O)NCC(N)=O)NC1=O` [Example 120] ({CH2CO}-[Ala(morpholin-4-yl)][Bip(4'-COOH)][Bip][Sar]PDRVPVRLCG-NH2; thioether N-13): 50 to 200 nM.
